Laboratory results as given in patent US20260097046A1, “PLASMODIUM FALCIPARUM BLOOD STAGE INHIBITORS” (University of Georgia Research Foundation, Inc., priority 2023, published 2026).

Assay: Solubility by HPLC assay
Format: physicochemical
Conditions: pH 7.4, HPLC assay
Procedure: Solubility was assessed for selected compounds using an HPLC assay.

Solubility (μM) at pH 7.4 | SMILES
12.8 μM | Cc1ccc(-c2cncc(C(=O)N(C)c3ccc(Cl)cc3)c2)cc1 [APZ-2160, N-(4-chlorophenyl)-N-methyl-5-(p-tolyl)nicotinamide]
19.1 μM | Cc1ccc(N(C)C(=O)c2ncn(-c3ccc(C)cc3)n2)cc1 [APZ-2327, N-methyl-N,1-di-p-tolyl-1H-1,2,4-triazole-3-carboxamide]
